For test [1], the system named is pancreatic tumors of KPFMC mice. Kind of test: Histological examination of KPFMC pancreatic tumors for invasion (intestine, biliary tract). It counts as in vivo. Here is the method:
(§1) FIG. 3A depicts H&E sections of pancreatic tumors from KPFMC mice at clinical endpoint. The tumors were analyzed microscopically to identify intestinal invasion (upper panel). […] Expression values are depicted in the heat map. FIG. 3D is a bar graph showing the influence of gemcitabine treatment on the invasive behavior of tumor cells. The cells were analyzed by quantification of double positive E-cadherin and Fsp1 cells in tumor sections of mice treated with saline and gemcitabine until clinical endpoint.
(§2) Tumor cells having increased Wnt/β-catenin signaling are known to be invasive. […] This observation supports that gemcitabine monotherapy results in an invasive tumor phenotype. To confirm that gemcitabine monotherapy results in an invasive tumor phenotype, a cohort of KPFMC mice were exposed to gemcitabine monotherapy (100 mg/kg), starting at day 45 after birth. The tumors were subsequently harvested at the clinical humane endpoint. […] This observation supports that gemcitabine monotherapy results in an invasive tumor phenotype.

Test [2] concerns tumor cells undergoing EMT in KPFMC pancreatic tumors. Kind of test: Quantification of tumor cells undergoing EMT (E-cadherin/Fsp1 double positive cells) in KPFMC tumor sections. The test is classed as in vivo, mice. Particulars: gemcitabine vs saline, treated until clinical endpoint. Here is the method:
(§3) Expression values are depicted in the heat map. Mice were treated from day 30 after birth until day 51. […] FIG. 4C is an immunofluorescence image of a section from a saline treated KPFMC mouse pancreas co-stained with E-cadherin and Fsp1 showing high magnification view of cells that co-express both the epithelial and mesenchymal marker (left panel).
Expression values are depicted in the heat map. Color intensities indicate the fold change with M402+gemcitabine combination therapy over M402. FIG. 5B is a bar graph showing the influence of M402 treatment on the invasive behavior of tumor cells induced by gemcitabine. Tumor sections derived from mice treated with saline and gemcitabine until clinical endpoint were analyzed by quantification of cells positive for E-cadherin and Fsp1 in tumor. FIG. 5C is a bar graph showing the quantification of intact Islets of Langerhans (lower panel) from pancreatic tumors after the indicated treatments. (Means±SD are depicted; *P<0.05, NS P>0.05, Student's t test).
Tumor cells having increased Wnt/β-catenin signaling are known to be invasive. […] This observation supports that gemcitabine monotherapy results in an invasive tumor phenotype. To confirm that gemcitabine monotherapy results in an invasive tumor phenotype, a cohort of KPFMC mice were exposed to gemcitabine monotherapy (100 mg/kg), starting at day 45 after birth. […]

A further test has as its system RTK phosphorylation. Kind of test: Phospho-RTK array analysis of KPFMC pancreatic tumors. It counts as in vivo, mice. Particulars: gemcitabine treated KPFMC tumors. As to the method: as §1, §3
Expression values are depicted in the heat map. Color intensities indicate the fold change with M402+gemcitabine combination therapy over M402. […] Tumor sections derived from mice treated with saline and gemcitabine until clinical endpoint were analyzed by quantification of cells positive for E-cadherin and Fsp1 in tumor. FIG. 5C is a bar graph showing the quantification of intact Islets of Langerhans (lower panel) from pancreatic tumors after the indicated treatments. […]

The test system of test [3] is Wnt/β-catenin signaling pathway. Kind of test: Expression of members of the Wnt/β-catenin signaling pathway. The test is classed as in vivo. Particulars: gemcitabine monotherapy.
Text: FIGS. 6A and 6B depict the effect of gemcitabine treatment on the Wnt/β-catenin signaling pathway.
FIGS. 7A and 7B depict the effect of pretreatment with M402 followed by subsequent gemcitabine/M402 combination treatment on the Wnt/β-catenin signaling pathway.
as §2
This observation supports that M402 inhibits the gemcitabine induced invasive tumor phenotype.

Test [4] deals with pancreatic ductal adenocarcinoma (PDA). Particulars: cited from earlier work.

Structures are written as SMILES. “Also recorded” adds a separate entry of the source.

In the case of `Nc1ccn([C@@H]2O[C@H](CO)[C@@H](O)C2(F)F)c(=O)n1` [gemcitabine], in test [1] (gemcitabine monotherapy 100 mg/kg from day 45, clinical endpoint), the “biliary tract obstruction / obstructive jaundice (invasion into the biliary tree)” value is on record as “obstructive jaundice; also recorded: invasion increased”. In test [1] (gemcitabine monotherapy 100 mg/kg from day 45 after birth, clinical endpoint, vs saline), the “intestinal invasion of pancreatic tumors” value was “increased invasion into the adjacent intestine; also recorded: number of mice with intestinal invasion increased”. Moreover, the “tumor cells undergoing EMT (E-cadherin/Fsp1 double positive cells)” value in test [2] is listed as “increase in tumor cells undergoing EMT”. Also, the “RTK phosphorylation in pancreatic tumors” value in the test with RTK phosphorylation is recorded as “increased the phosphorylation of several RTKs; also recorded: increase in RTK phosphorylation”. Further, the “expression of members of the Wnt/β-catenin signaling pathway” value in test [3] is “increases expression of several members of the Wnt/β-catenin signaling pathway”. For the same molecule, the overall survival result in test [4] (adjuvant gemcitabine post surgical removal of a pancreatic tumor) is listed as “prolong overall survival”. Besides, the survival benefit entry in test [4] (gemcitabine monotherapy in the absence of surgery) was “failed to show an extensive survival benefit”.
